Tests used:
episodic migraine = settings: continuous carbon dioxide infusion; cited from earlier work
[1] = cited from earlier work
[2] = test system: chronic rhinosinusitis (CRS) with nasal polyps; test: Example #12: placebo controlled study in chronic rhinosinusitis with nasal polyps; format: in vivo, human; settings: after 12 weeks

Compound	two-hour pain free response (episodic migraine)	dips in mucosal pH ([1]; 5 L/min carbon dioxide in concentrations of 15% and 45%)	decrease of extracellular nasal mucosal pH ([1]; 5 L/min, 3 s duration, 20% carbon dioxide, basal ~7.4)	change in summed polyp score [2]
O=C=O [carbon dioxide]	25.0%	0.1-0.2 pH units	0.05-0.1 pH units	
C[C@@H]1C[C@H]2[C@@H]3C[C@H](F)C4=CC(=O)C=C[C@]4(C)[C@@]3(F)[C@@H](O)C[C@]2(C)[C@@]1(O)C(=O)SCF [fluticasone]				−0.98

From patent US12616806B2, “Nasal administration” (OptiNose Inc., priority 2013, dated 2026)
